Data from PMC9865645, “The Impact of N^ε-Acryloyllysine Piperazides on the Conformational Dynamics of Transglutaminase 2” (International Journal of Molecular Sciences, 2023).

How the values were obtained:
hTGase 2 = target: T1, hTGase 2 (Homo sapiens, UniProt P21980); assay: switchSENSE static mode (fluorescence proximity sensing): binding kinetics of GTPγS to hTGase 2-dsDNA lever; conditions: for koff / kon: 20 nM GTPγS, best-fit ± standard error; for Kd: quotient koff/kon
T1 construct: purchased Zedira (Darmstadt, Germany) T022, lot 0716a
T1 sequence (P21980 1-687): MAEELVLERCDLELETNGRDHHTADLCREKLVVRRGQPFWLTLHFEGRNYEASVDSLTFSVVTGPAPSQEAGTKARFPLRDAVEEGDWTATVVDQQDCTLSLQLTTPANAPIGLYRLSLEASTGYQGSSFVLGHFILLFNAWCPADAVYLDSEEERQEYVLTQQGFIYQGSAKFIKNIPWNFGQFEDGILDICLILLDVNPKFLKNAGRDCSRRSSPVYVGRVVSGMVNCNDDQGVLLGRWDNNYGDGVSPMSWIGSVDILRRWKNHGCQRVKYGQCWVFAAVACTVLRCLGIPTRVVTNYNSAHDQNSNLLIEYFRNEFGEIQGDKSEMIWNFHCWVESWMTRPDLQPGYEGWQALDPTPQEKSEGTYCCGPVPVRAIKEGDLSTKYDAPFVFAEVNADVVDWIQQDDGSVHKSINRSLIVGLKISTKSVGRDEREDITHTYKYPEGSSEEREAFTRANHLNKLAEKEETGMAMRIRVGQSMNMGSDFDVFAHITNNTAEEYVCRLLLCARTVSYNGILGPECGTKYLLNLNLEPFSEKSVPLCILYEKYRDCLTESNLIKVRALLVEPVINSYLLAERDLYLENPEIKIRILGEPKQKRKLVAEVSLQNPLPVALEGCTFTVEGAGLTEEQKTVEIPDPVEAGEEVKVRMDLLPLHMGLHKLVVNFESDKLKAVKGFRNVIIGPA
Procedure: The switchSENSE® experiments were performed with a DRX^2 (Dynamic Biosensors, excitation 600–630 nm, emission 650–686 nm). All experiments were performed in TE40 (10 mM TRIS pH 7.4, 40 mM NaCl, 50 µM EDTA, 50 µM EGTA, 100 µM TCEP, 0.05% Tween 20) when not explicitly stated otherwise. For the dynamic mode measurements, the standard operation procedures as described in [56] were applied. For measurements of the kinetics of the interaction of both GTPγS and CaCl2 with hTGase 2, firstly, the ssDNA-hTGase 2 conjugate was hybridized for 360 s to the ssDNA capture strand on the gold microelectrodes of the chip. With 500 nM, the conjugate concentration was chosen relatively high to achieve full coverage of the electrodes. Secondly, 1000 µL of 20 nM GTPγS in TE40 were flushed over the electrodes, followed by about 4000 µL of TE40 (2000 µL/min), to obtain access to the association as well as the dissociation, respectively. Changes in the fluorescence intensity during the GTPγS interaction were recorded using fluorescence proximity sensing (static mode).
The formation of the protein–ligand complex of GTPγS and hTGase 2 can be represented by the reaction equation expressed by Equation (1). (1) P+L kon⇌koff PL
The concentration of the protein–ligand complex, [PL] , at a certain time of association ta is [PL]a . At the beginning of the association, there is no surface-bound complex present, i.e., [PL]=0 , and the ligand concentration is assumed to be constant at [L]=cGTPγS . This neglects diffusion limitation by assuming continuous replacement of the medium at the electrode surface in the microfluidic channel. Thus, the time-dependent equilibrium fraction reached at the association time ta can be expressed by Equation (2). For derivation, see Equations (S1) to (S5) in Supplementary Materials. (2) [PL]a/[PL]∞=1−e^−ka·ta
In Equation (2), [PL]∞ is the equilibrium concentration of the protein–ligand complex, and ka is the apparent rate constant in the association experiment, defined by Equation (3). (3) ka=cGTPγS kon+koff
During the dissociation, the concentration of the free ligand is assumed to be constantly zero. Consequently, Equation (6) should be valid (for derivation, see Equations (S7) to (S10) in Supplementary Materials). (6) [PL]d/[PL]d,0=e^−koff·td
Combining Equations (6) and (7), the time-dependent fluorescence intensity during the dissociation is given by Equation (8). (8) Fd=(Fd,s−Fd,e)(e^−koff·td)+Fd,e
Equations (5) and (8) were fitted to the measured fluorescence intensities of the association and dissociation experiments with 20 nM GTPγS, respectively. This was performed by a damped Gauss–Newton algorithm (see Equations (S12) and (S13) in Supplementary Materials) to determine the best-fit parameters, and consequently, kon and koff. The quotient koff/kon is the dissociation constant, Kd. Additionally, the standard errors of these parameters were estimated (Equations (S14) to (S21) in Supplementary Materials).

commercial His6-hTGase 2 = target: T2, commercial His6-hTGase 2 (Homo sapiens, UniProt P21980); assay: fluorescence anisotropy (FA)-based transamidase activity assay, commercial His6-hTGase 2; assay type: biochemical
T2 construct: purchased Zedira (Darmstadt, Germany) T022, lot 0716a
T2 sequence (P21980 1-687): T1 sequence (P21980 1-687)
Procedure: For the analysis of inhibitor 1 on self-produced hTGase 2, 2 µg/mL of the enzyme was used to guarantee comparability with the value reported by Wodtke et al., whereas all other experiments were performed with 5 µg/mL of either commercial or self-produced hTGase 2 (corresponding to 64.1 and 61.6 nM, respectively, when assuming 100% active protein). Parallel and perpendicular fluorescence intensities were measured over 1190 s in 35 s intervals (1) or over 1776 s in 48 s intervals (2, 3) and used to calculate the FA. Data of FA for the first 875 s (1) or 384 s (2, 3) were analyzed by linear regression, with slopes corresponding to enzymatic rates. Rates in the presence of inhibitor were normalized by dividing them by the respective rate in the absence of inhibitor, and normalized rates were analyzed according to Equation (S29) in Supplementary Materials to calculate values of IC50. Data analysis was performed with Microsoft Excel (Microsoft Office Professional Plus 2016, Microsoft® Corporation, USA) and GraphPad Prism version 5.03 or version 6.07 for Windows (GraphPad Software, La Jolla, CA, USA).

[1] = His-tag-directed labeling of hTGase 2
[2] = non-directed labeling of hTGase 2

koff (hTGase 2; [1])	kon (hTGase 2; [1])	Kd (hTGase 2; [1])	koff (hTGase 2; [2])	kon (hTGase 2; [2])	Kd (hTGase 2; [2])	IC50 (commercial His6-hTGase 2; 5 min pre-incubation of enzyme and inhibitor, mean (SEM) of three experiments)	IC50 (commercial His6-hTGase 2; 30 min pre-incubation, hTGase 2 (Zedira) 64.1 nM, mean (SEM))	ratio of the IC50 and the molar enzyme concentration (commercial His6-hTGase 2; FA assay, 30 min pre-incubation, range over in-house and commercial hTGase 2)	IC50 (commercial His6-hTGase 2; FA assay, 30 min pre-incubation, range over in-house and commercial hTGase 2 (62–64 nM))	SMILES
1.9 ± 0.5 10^−2 s^−1	16 ± 2 10^6 M^−1 s^−1	1.2 ± 0.4 nM	1.6 ± 0.6 10^−2 s^−1	17 ± 4 10^6 M^−1 s^−1	1 ± 0.4 nM					Nc1nc2c(ncn2[C@@H]2O[C@H](COP(=O)(O)OP(=O)(O)OP(O)(O)=S)[C@@H](O)[C@H]2O)c(=O)[nH]1 [GTPγS]
						154 nM	47.4 nM	0.57–0.74	35 to 47 nM	C=CC(=O)NCCCC[C@H](NC(=O)Cc1ccccc1I)C(=O)N1CCN(c2ccc([N+](=O)[O-])nc2)CC1 [Compound 2, N^α-(2-Iodophenylacetyl)-N^ε-acryloyl-L-lysin-4-(2-nitropyridin-5-yl)piperazide]
